The results in this text go back to PMC7756392, “Syntheses of Thailandepsin B Pseudo‐Natural Products: Access to New Highly Potent HDAC Inhibitors via Late‐Stage Modification” (Chemistry (Weinheim an Der Bergstrasse, Germany), 2020).

What all share (format): cell-based
Test [1] has as its system HDAC in HL60 cells. Nature of the test: Cellular HDAC activity assay, HL60. The note with it: read-out: cellular HDAC inhibition IC50. On the procedure:
(§1) Cellular trypsin-based activity assay:13 1 x 10^4 Hela cells (50 µL) were seeded in sterile dark 96-well microtiter plates (Perkin Elmer) and incubated overnight at 37 °C and 5% CO2 atmosphere. The next day, the medium was aspirated and the cells were incubated with different inhibitor concentrations or DMSO, diluted in 50 µL m edium without supplements and phenol red. After 2 h incubation time, 50 µL of the HDAC substrate MAL (Boc -Lys(Ac)-AMC) were added to a final concentration of 150 µM and the plate was incubated for 2 h at 37°C and 5%
(§2) CO2. The reaction was stopped by adding 50 µL of stop solution (50 mM Tris, 137 mM NaCl, 1 mM MgCl2, 2.7 mM KCl, 1 µM TSA, 0.1% Igepal, 1 mg/ml Trypsin). After another 20 min of incubation, the fluorescence signal (λex = 390 nm, λem = 460 nm) was measured on a BMG LABTECH POLARstar OPTIMA plate reader (BMG Labtechnologies, Germany). […]

Test [2] concerns acetylated histone 3. Nature of the test: Western blot, acetyl-histone 3 in HL60 cells. On the procedure: (§3) LABTECH POLARstar OPTIMA plate reader (BMG Labtechnologies, Germany).
(§4) Western Blot: 2.5 x 10^5 HL60 cells were seeded in sterile 12-well plates and incubated with different concentrations of compound or DMSO for 4 h. Cells were washed with cold PBS, lysed with 90 µL SDS sample buffer (Cell Signaling, 62.5 mM Tris-HCl (pH 6.8 at 25°C), 2% w/v SDS, 10% v/v glycerol, 50 mM dithiothreitol, 0.01% bromophenol blue), shortly sonicated and heated to 95°C for 5 min. Cell extracts were used directly for SDS-PAGE or kept frozen at -20 […]
(§5) For the SDS-PAGE, 7 µL cell lysate were loaded on a 12.5% gel and the gel was run at 150V for approximately 1 h, followed by the transfer to a nitrocellulose membrane. The membrane was blocked with 5% milk in TBS-T 0.1% for 1 h at room temperature and washed (3 x 5 min) with TBS-T before adding the antibodies. Western blot analysis was performed with the following primary antibodies: anti-acetylated α-tubulin (Sigma-Aldrich, 1:1000), anti-acetyl-histone 3 (Millipore, 1:2000) and anti-GAPDH (Sigma-Aldrich, 1:5000) and secondary antibodies: anti-mouse-IgG-HRP (Sigma-Aldrich, 1:10000) and anti-rabbit IgG-HRP (Sigma- […]
(§6) Aldrich, 1:5000). The antibodies were all diluted in 3% milk in TBS-T 0.1%. Detection was performed via enhanced chemiluminescence (ECL Prime) using a FUSION-SL (PEQLAB) and the FUSION-CAPT software.
(§7) Figure 4: Western blot of acetyl-α-tubulin, acetyl-H3 and GAPDH after treatment of HL60 cells with different concentrations of 33 or DMSO for 4 h. GAPDH was used as loading control, DMSO as negative control. […]
Background: A western blot detects proteins with antibodies after separation by electrophoresis.

Test [3] concerns HDAC in HeLa cells. The test can be described thus: Cellular HDAC activity assay, HeLa. The note with it: for IC50: read-out: cellular HDAC inhibition IC50. Here is the method:
as §1, §2

For test [4], the system named is acetylated α-tubulin. Nature of the test: Western blot, acetylated α-tubulin in HL60 cells. The following applies: for ac-tubulin: HL60 cells, 4 h. Here is the method:
as §3, §4, §5, §6, §7

For orientation: IC50 means the midpoint of a concentration-inhibition curve. Take `CCCC[C@H]1NC(=O)C[C@@H](/C=C/CCSC(C)=O)OC(=O)C[C@H](O)[C@@H]([C@@H](C)CC)NC(=O)[C@@H](C)NC1=O` [compound 33]: the results for the IC50 in test [1] and in test [3] were 0.0091 ± 0.0008 µM and 0.034 ± 0.0022 µM, respectively. Further, the “isotype selectivity for class I HDACs in cells (western blot)” value in test [2] (HL60 cells, 4 h) is reported as “selective inhibition of class I HDACs”. For the same compound, the “ac-histone 3” value in test [2] (HL60 cells, 4 h, 0.0001 µM) turned out to be 1.1%; in test [2] (HL60 cells, 4 h, 0.001 µM) it was 0.9%; in test [2] (HL60 cells, 4 h, 0.01 µM), 1.8%; in test [2] (HL60 cells, 4 h, 0.1 µM), 4.4%. The “levels of acetylated histone 3 with increasing inhibitor concentration (in words)” value in test [2] (western blot) is “increasing levels”. Besides, the ac-tubulin in test [4] (0.0001 µM) is 1.1%; in test [4] (0.01 µM) it was 1.1%; in test [4] (0.1 µM) it was 1.3%; in test [4] (1 µM), 1.4%. Also, the “levels of acetylated α-tubulin with increasing inhibitor concentration (in words)” value in test [4] (western blot) is “Constant levels”.
Take `CCCC[C@H]1NC(=O)C[C@@H](/C=C/CCSC(C)=O)OC(=O)C[C@H](O[Si](C)(C)C(C)(C)C)[C@@H]([C@@H](C)CC)NC(=O)[C@@H](C)NC1=O` [compound 32]: the half-maximal inhibitory concentration (IC50) is 66.3 ± 3.5 µM in test [1] and 58.6 ± 1.3 µM in test [3].
Regarding `CCCC[C@H]1NC(=O)C[C@@H](/C=C/CCC(=O)NO)OC(=O)C[C@H](O)[C@@H]([C@@H](C)CC)NC(=O)[C@@H](C)NC1=O` [compound 8], in test [3] (5 μM), the “HDAC inhibition in cells at 5 μM (in words)” value is “no HDAC inhibition”.
